Measurements taken from PubChem BioAssay AID330 (DTP/NCI, 2004).
Where “and” joins values, the source holds several entries; their conditions need not be identical. Equal entries are not always repeated. Inconclusive results and toxic doses are left out.

Tested on: P388 leukemia ip, CD2F1 mice, survival T/C
Assay: NCI In Vivo Anticancer Drug Screen. Data for tumor model P388 Leukemia (intraperitoneal) in CD2F1 (CDF1) mice
Details: endpoint: median survival time, higher = longer survival
Procedure, shortened: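 Mice carrying the transplanted tumor received test compound or vehicle. Survival was recorded in each group, and the value is the treated-group measurement divided by that of the vehicle-treated control group.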

[1] = dose: 50.0 mg/kg/injection, schedule: Q01DX005 (ip), vehicle: Klucel (hydroxypropylcellulose) (HPC)
[2] = dose: 100.0 mg/kg/injection, schedule: Q01DX005 (ip), vehicle: Klucel (hydroxypropylcellulose) (HPC)
[3] = dose: 200.0 mg/kg/injection, schedule: Q01DX005 (ip), vehicle: Klucel (hydroxypropylcellulose) (HPC)
[4] = dose: 50.0 mg/kg/injection, schedule: Q01DX009 (ip), vehicle: saline with Tween-80
[5] = dose: 100.0 mg/kg/injection, schedule: Q01DX009 (ip), vehicle: saline with Tween-80
[6] = dose: 200.0 mg/kg/injection, schedule: Q01DX009 (ip), vehicle: saline with Tween-80
[7] = dose: 50.0 mg/kg/injection, schedule: Q01DX009 (ip), vehicle: Klucel (hydroxypropylcellulose) (HPC)
[8] = dose: 100.0 mg/kg/injection, schedule: Q01DX009 (ip), vehicle: Klucel (hydroxypropylcellulose) (HPC)
[9] = dose: 50.0 mg/kg/injection, schedule: Q01DX005 (ip), vehicle: saline with Tween-80
[10] = dose: 100.0 mg/kg/injection, schedule: Q01DX005 (ip), vehicle: saline with Tween-80
[11] = dose: 60.0 mg/kg/injection, schedule: Q01DX005 (ip), vehicle: Klucel (hydroxypropylcellulose) (HPC)
[12] = dose: 120.0 mg/kg/injection, schedule: Q01DX005 (ip), vehicle: Klucel (hydroxypropylcellulose) (HPC)
[13] = dose: 240.0 mg/kg/injection, schedule: Q01DX005 (ip), vehicle: Klucel (hydroxypropylcellulose) (HPC)

CCOC(=O)N1CC23C(C)C(C)=C(C)C2C3(C)N1C(=O)OCC (centres undefined)
T/C [1]: 100 % of control
T/C [2]: 100 % of control
T/C [3]: 98 % of control

COC(=O)C(=CNC(N)=O)C(=O)OC
T/C (dose: 60.0 mg/kg/injection, schedule: Q01DX005 (ip), vehicle: saline with Tween-80): 96 % of control
T/C (dose: 120.0 mg/kg/injection, schedule: Q01DX005 (ip), vehicle: saline with Tween-80): 100 % of control
T/C (dose: 240.0 mg/kg/injection, schedule: Q01DX005 (ip), vehicle: saline with Tween-80): 94 % of control

C=C(C)C(=O)Nc1ccc(NS(=O)(=O)c2ccc(C(C)CC)cc2)c(O)c1 (centres undefined)
T/C (dose: 50.0 mg/kg/injection, schedule: Q01DX009 (ip), vehicle: saline + alcohol): 101 % of control
T/C (dose: 100.0 mg/kg/injection, schedule: Q01DX009 (ip), vehicle: saline + alcohol): 106 % of control
T/C (dose: 200.0 mg/kg/injection, schedule: Q01DX009 (ip), vehicle: saline + alcohol): 106 % of control

COc1cc2oc3ccccc3c(=O)c2cc1CSc1ccccc1N
T/C (dose: 12.5 mg/kg/injection, schedule: Q01DX009 (ip), vehicle: saline with Tween-80): 89 % of control and 96 % of control
T/C (dose: 25.0 mg/kg/injection, schedule: Q01DX009 (ip), vehicle: saline with Tween-80): 93 % of control and 98 % of control
T/C [4]: 92 % of control and 96 % of control
T/C [5]: 87 % of control and 89 % of control

CC(NC(=O)OCc1ccccc1)C(=O)N1CCCC1C(=O)O (centres undefined)
T/C [1]: 91 % of control
T/C [2]: 90 % of control
T/C [3]: 98 % of control

CCOc1ccccc1C=C1c2ccccc2C(=O)c2ccccc21
T/C [4]: 96 % of control
T/C [5]: 92 % of control
T/C [6]: 91 % of control

CCOC(=O)C1=CC(Oc2cc(NS(=O)(=O)c3ccccc3)ccc2O)C(C(=O)OCC)=CC1Oc1cc(NS(=O)(=O)c2ccccc2)ccc1O (centres undefined)
T/C (dose: 37.5 mg/kg/injection, schedule: Q01DX001 (ip), vehicle: saline with Tween-80): 105 % of control
T/C (dose: 75.0 mg/kg/injection, schedule: Q01DX001 (ip), vehicle: saline with Tween-80): 100 % of control
T/C (dose: 150.0 mg/kg/injection, schedule: Q01DX001 (ip), vehicle: saline with Tween-80): 100 % of control

O=c1c(CO)c(-c2ccccc2)oc2ccccc12
T/C (dose: 100.0 mg/kg/injection, schedule: Q04DX002 (ip), vehicle: Klucel (hydroxypropylcellulose) (HPC)): 115 % of control
T/C (dose: 200.0 mg/kg/injection, schedule: Q04DX002 (ip), vehicle: Klucel (hydroxypropylcellulose) (HPC)): 98 % of control
T/C (dose: 400.0 mg/kg/injection, schedule: Q04DX002 (ip), vehicle: Klucel (hydroxypropylcellulose) (HPC)): 101 % of control

CC(C)C(=NC(C)(C)C)Nc1ccccc1Cl
T/C [4]: 100 % of control
T/C [5]: 92 % of control
T/C [6]: 95 % of control

O=C1C=CC(=Nc2ccc(N(CCCl)CCCl)cc2)c2ccccc21
T/C [7]: 171 % of control
T/C [8]: 156 % of control and 181 % of control

Cc1cc(Cl)nc2c1ccn2C1OC(CO)C(O)C1O (centres undefined)
T/C (dose: 32.0 mg/kg/injection, schedule: Q01DX001 (ip), vehicle: saline): 100 % of control
T/C (dose: 64.0 mg/kg/injection, schedule: Q01DX001 (ip), vehicle: saline): 100 % of control
T/C (dose: 128.0 mg/kg/injection, schedule: Q01DX001 (ip), vehicle: saline): 102 % of control

C/C(=N\Nc1nc2ccccc2s1)c1ccccn1
T/C (dose: 12.5 mg/kg/injection, schedule: Q01DX005 (ip), vehicle: saline with Tween-80): 98 % of control
T/C (dose: 25.0 mg/kg/injection, schedule: Q01DX005 (ip), vehicle: saline with Tween-80): 93 % of control
T/C [9]: 101 % of control and 91 % of control
T/C [10]: 104 % of control

COc1cc2c(cc1OC)-c1c(O)c(OC)cc3c1C(C2)N(C)CC3 (centres undefined)
T/C (dose: 1.12 mg/kg/injection, schedule: Q01DX009 (ip), vehicle: Klucel (hydroxypropylcellulose) (HPC)): 100 % of control
T/C (dose: 1.25 mg/kg/injection, schedule: Q01DX009 (ip), vehicle: Klucel (hydroxypropylcellulose) (HPC)): 103 % of control
T/C (dose: 2.25 mg/kg/injection, schedule: Q01DX009 (ip), vehicle: Klucel (hydroxypropylcellulose) (HPC)): 100 % of control and 103 % of control
T/C (dose: 2.5 mg/kg/injection, schedule: Q01DX009 (ip), vehicle: Klucel (hydroxypropylcellulose) (HPC)): 91 % of control
T/C (dose: 4.5 mg/kg/injection, schedule: Q01DX009 (ip), vehicle: Klucel (hydroxypropylcellulose) (HPC)): 103 % of control
T/C (dose: 5.0 mg/kg/injection, schedule: Q01DX009 (ip), vehicle: Klucel (hydroxypropylcellulose) (HPC)): 97 % of control
T/C (dose: 9.0 mg/kg/injection, schedule: Q01DX009 (ip), vehicle: Klucel (hydroxypropylcellulose) (HPC)): 110 % of control and 95 % of control
T/C (dose: 10.0 mg/kg/injection, schedule: Q01DX009 (ip), vehicle: Klucel (hydroxypropylcellulose) (HPC)): 97 % of control
T/C (dose: 18.0 mg/kg/injection, schedule: Q01DX009 (ip), vehicle: Klucel (hydroxypropylcellulose) (HPC)): 93 % of control

CSCNC(=S)Nc1ccc(Cl)cc1
T/C [7]: 94 % of control

CCCCOP(O)(=S)OCCCC.[Ti]
T/C [8]: 96 % of control
T/C (dose: 200.0 mg/kg/injection, schedule: Q01DX009 (ip), vehicle: Klucel (hydroxypropylcellulose) (HPC)): 96 % of control
T/C (dose: 400.0 mg/kg/injection, schedule: Q01DX009 (ip), vehicle: Klucel (hydroxypropylcellulose) (HPC)): 95 % of control

NC(Cc1ccc(O)c(Cl)c1)C(=O)O (centres undefined)
T/C (dose: 50.0 mg/kg/injection, schedule: Q01DX005 (ip), vehicle: saline): 98 % of control
T/C (dose: 100.0 mg/kg/injection, schedule: Q01DX005 (ip), vehicle: saline): 98 % of control
T/C (dose: 200.0 mg/kg/injection, schedule: Q01DX005 (ip), vehicle: saline): 95 % of control

NCC(=O)O
T/C (dose: 3.75 mg/kg/injection, schedule: Q01DX005 (ip), vehicle: saline): 99 % of control
T/C (dose: 7.5 mg/kg/injection, schedule: Q01DX005 (ip), vehicle: saline): 100 % of control
T/C (dose: 15.0 mg/kg/injection, schedule: Q01DX005 (ip), vehicle: saline): 99 % of control and 94 % of control
T/C (dose: 50.0 mg/kg/injection, schedule: Q01DX009 (ip), vehicle: saline): 94 % of control
T/C (dose: 100.0 mg/kg/injection, schedule: Q01DX009 (ip), vehicle: saline): 105 % of control
T/C (dose: 200.0 mg/kg/injection, schedule: Q01DX009 (ip), vehicle: saline): 110 % of control

CCN(CC)CCCNCc1cc(-c2ccccc2)nc2ccccc12
T/C [9]: 101 % of control
T/C [10]: 100 % of control
T/C (dose: 200.0 mg/kg/injection, schedule: Q01DX005 (ip), vehicle: saline with Tween-80): 95 % of control

CCc1nc(N)nc(N)c1-c1ccc(Cl)c(NC(C)=O)c1
T/C (dose: 3.13 mg/kg/injection, schedule: Q01DX009 (ip), vehicle: distilled water + Tween-80): 94 % of control
T/C (dose: 6.25 mg/kg/injection, schedule: Q01DX009 (ip), vehicle: distilled water + Tween-80): 94 % of control
T/C (dose: 12.5 mg/kg/injection, schedule: Q01DX009 (ip), vehicle: distilled water + Tween-80): 94 % of control
T/C (dose: 25.0 mg/kg/injection, schedule: Q01DX009 (ip), vehicle: distilled water + Tween-80): 88 % of control
T/C (dose: 50.0 mg/kg/injection, schedule: Q01DX009 (ip), vehicle: distilled water + Tween-80): 91 % of control

CC(C)=CCCC(C)(OC1OC(CO)C(O)C(O)C1O)C1CCC2(C)C1C(O)CC1C3(C)CCC(O)C(C)(C)C3C(OC3OC(CO)C(O)C(O)C3OC3OC(C)C(O)C(O)C3O)CC12C (centres undefined) (tested in a mixture with another compound)
T/C (dose: 18.75 mg/kg/injection, schedule: Q01DX009 (ip), vehicle: Klucel (hydroxypropylcellulose) (HPC)): 101 % of control
T/C (dose: 37.5 mg/kg/injection, schedule: Q01DX009 (ip), vehicle: Klucel (hydroxypropylcellulose) (HPC)): 101 % of control
T/C (dose: 75.0 mg/kg/injection, schedule: Q01DX009 (ip), vehicle: Klucel (hydroxypropylcellulose) (HPC)): 100 % of control
T/C (dose: 150.0 mg/kg/injection, schedule: Q01DX009 (ip), vehicle: Klucel (hydroxypropylcellulose) (HPC)): 100 % of control

CCOC(=O)/C=C1\CSC2=NC(c3ccccc3)CN21 (centres undefined)
T/C [11]: 94 % of control
T/C [12]: 94 % of control
T/C [13]: 86 % of control

CCOC(=O)c1cnc2cc3c(cc2c1Nc1cccc(C)c1C)OCO3
T/C [11]: 101 % of control
T/C [12]: 101 % of control
T/C [13]: 95 % of control

CC(C)C(NN)C(=O)O (centres undefined)
T/C [9]: 98 % of control
T/C [10]: 116 % of control
